These results are taken from patent US10968209B2, “TRPV4 antagonist” (GlaxoSmithKline Intellectual Property (No.2) Limited, priority 2016, dated 2021).

The target of the test is T1, human TRPV4 (Homo sapiens, UniProt Q9HBA0).
T1 construct: expressed in transfected cells; host or cells: HEK293 MSRII cells (BacMam transduction)
The experiment in a line: Ligand-gated assay: FLIPR assay for human TRPV4 expressed in HEK293 MSRII cells. The class given is cell-based. Particulars: HEK293 MSRII cells transduced with BacMam virus expressing human TRPV4; Fluo-4 calcium signal; agonist at EC80; read-out: activity (inhibition of Agonist Compound-induced calcium signal). From the text: FLIPR Assay for Human TRPV4 Expressed in HEK293 MSRII Cells
TRPV4 channel activation results in an influx of divalent and monovalent cations including calcium. The resulting changes in intracellular calcium were monitored using a calcium specific fluorescent dye Fluo-4 (MDS Analytical Technologies). HEK293 MSRII cells (human embryonic kidney 293 cells stably expressing the macrophage scavenger receptor class II) transduced with BacMam virus expressing the human TRPV4 gene at 1% final concentration were plated in a 384 well poly-D lysine coated plate (15,000 cells/well in 50 μL culture medium containing DMEM/F12 with 15 mM HEPES, 10% FBS, 1% Penicillin-Streptomycin and 1% L-glutamine). Cells were incubated for 24-72 hours at 37° C. and 5% CO2. Culture medium was then aspirated using a Tecan plate-washer and replaced with 20 μL/well of dye loading buffer: HBSS, 500 μM Brilliant Black (MDS Analytical Technologies), and 2 μM Fluo-4 AM. Dye loaded plates were then incubated in the dark at room temperature for 1-1.5 hours. […] Calcium signals were measured using FLIPR^TETRA (MDS Analytical Technologies) or FLIPR384 (MDS Analytical Technologies) and the inhibition of Agonist Compound-induced calcium signal by the test compound was determined.

pIC50: −log10 of the molar value.

T1 sequence (Q9HBA0 whole entry): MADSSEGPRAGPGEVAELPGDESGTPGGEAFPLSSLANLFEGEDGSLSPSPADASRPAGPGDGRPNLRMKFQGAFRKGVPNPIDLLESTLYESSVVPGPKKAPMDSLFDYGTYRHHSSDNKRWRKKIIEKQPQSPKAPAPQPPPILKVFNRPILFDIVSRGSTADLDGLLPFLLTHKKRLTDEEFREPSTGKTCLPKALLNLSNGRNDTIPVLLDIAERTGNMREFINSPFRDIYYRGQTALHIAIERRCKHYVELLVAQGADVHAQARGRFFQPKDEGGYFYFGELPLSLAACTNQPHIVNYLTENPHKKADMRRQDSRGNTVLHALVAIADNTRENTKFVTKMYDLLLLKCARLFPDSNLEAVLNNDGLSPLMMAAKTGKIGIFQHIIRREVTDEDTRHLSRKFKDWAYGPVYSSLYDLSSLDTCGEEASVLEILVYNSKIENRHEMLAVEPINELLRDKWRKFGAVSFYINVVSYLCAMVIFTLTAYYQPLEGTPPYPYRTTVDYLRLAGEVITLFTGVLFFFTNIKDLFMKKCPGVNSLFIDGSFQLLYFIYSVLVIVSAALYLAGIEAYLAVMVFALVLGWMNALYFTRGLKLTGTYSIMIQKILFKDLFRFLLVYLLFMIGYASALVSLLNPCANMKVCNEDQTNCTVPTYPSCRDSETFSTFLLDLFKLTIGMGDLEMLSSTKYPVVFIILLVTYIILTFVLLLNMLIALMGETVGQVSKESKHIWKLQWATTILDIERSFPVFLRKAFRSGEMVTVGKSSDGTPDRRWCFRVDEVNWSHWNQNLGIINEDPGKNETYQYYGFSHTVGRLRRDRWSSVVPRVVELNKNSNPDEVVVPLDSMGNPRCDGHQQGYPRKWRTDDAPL

Regarding `N#Cc1ccc2ncn(C[C@@]3(O)CCC[C@@]4(CN(c5cnc(C6CC6)cn5)C(=O)O4)C3)c2c1` [Compound A, 1-(((5S,7R)-3-(5-cyclopropylpyrazin-2-yl)-7-hydroxy-2-oxo-1-oxa-3-azaspiro[4.5]decan-7-yl)methyl)-1H-benzo[d]imidazole-6-carbonitrile], the pIC50 is 8.20.
